Experimental data published in US11458138B2 (Novartis AG, priority 2017, dated 2022).

Columns and labels:
LATS1 = LATS1 (Homo sapiens (Human), UniProt O95835); assay: LATS1 biochemical assay (Table 1A, Compound Examples 1-290; method in the earlier part)
[1] = test system: YAP nuclear translocation in HaCaT cells; assay: YAP Translocation Assay (HaCaT Cells); assay type: cell-based, human; settings: Homo sapiens, 24 hours
Procedure: HaCaT cells were suspended at 0.4×10^6 cells/ml in DMEM+10% FBS with penicillin-streptomycin-glutamine. 50 μl of cells were dispensed into 384-well clear bottom assay plates (20,000 cells/well), and incubated overnight at 37° C. 100 nL test compound was transferred into the assay wells containing HaCaT cells using ECHO (Labcyte). After 24 hours incubation at 37° C., 7 μL of 32% PFA was dispensed into each well and incubated for 45 minutes at room temperature. Plates were washed 3 times with PBS, leaving 20 μL of PBS per well, then treated with 0.1% Triton and 1.5% BSA in PBS for 45 minutes at room temperature. Plates were washed for 5 times with PBS, leaving 20 μL of PBS per well. […] Plates were further washed 3 time with PBS, sealed and imaged on the high-content Opera imaging system (PerkinElmer).

Sequence of LATS1 (O95835 whole entry, looked up): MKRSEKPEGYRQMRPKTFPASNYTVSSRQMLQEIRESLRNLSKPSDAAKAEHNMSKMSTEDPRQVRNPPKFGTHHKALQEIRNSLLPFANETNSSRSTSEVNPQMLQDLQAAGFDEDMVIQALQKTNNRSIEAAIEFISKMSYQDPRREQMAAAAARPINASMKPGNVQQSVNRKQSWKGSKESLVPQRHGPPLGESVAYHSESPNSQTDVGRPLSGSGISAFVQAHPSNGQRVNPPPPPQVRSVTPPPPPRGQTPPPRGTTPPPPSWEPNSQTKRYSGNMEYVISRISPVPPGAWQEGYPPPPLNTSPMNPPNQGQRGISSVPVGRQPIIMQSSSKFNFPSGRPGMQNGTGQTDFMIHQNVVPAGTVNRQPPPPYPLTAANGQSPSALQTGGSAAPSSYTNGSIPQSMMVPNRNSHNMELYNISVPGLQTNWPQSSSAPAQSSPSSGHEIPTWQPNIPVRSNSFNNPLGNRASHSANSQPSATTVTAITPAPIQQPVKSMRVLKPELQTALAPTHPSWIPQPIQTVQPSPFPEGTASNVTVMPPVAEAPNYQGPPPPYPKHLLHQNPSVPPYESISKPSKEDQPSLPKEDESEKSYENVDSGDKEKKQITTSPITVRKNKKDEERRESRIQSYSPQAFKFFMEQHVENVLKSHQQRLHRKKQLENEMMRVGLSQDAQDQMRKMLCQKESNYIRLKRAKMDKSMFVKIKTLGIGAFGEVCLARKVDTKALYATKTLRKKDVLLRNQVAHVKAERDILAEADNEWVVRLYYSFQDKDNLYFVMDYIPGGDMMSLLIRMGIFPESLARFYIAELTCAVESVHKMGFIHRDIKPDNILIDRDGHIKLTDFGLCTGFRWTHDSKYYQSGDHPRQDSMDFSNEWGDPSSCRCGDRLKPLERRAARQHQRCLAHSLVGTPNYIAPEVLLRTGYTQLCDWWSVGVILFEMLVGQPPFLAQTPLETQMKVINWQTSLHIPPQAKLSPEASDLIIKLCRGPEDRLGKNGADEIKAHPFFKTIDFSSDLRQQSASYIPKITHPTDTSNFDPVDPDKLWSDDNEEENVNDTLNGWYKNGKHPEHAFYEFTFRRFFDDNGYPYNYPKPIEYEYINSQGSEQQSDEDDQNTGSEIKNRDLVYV
Sequence of LATS1 (Q7L9L4 whole entry partner, looked up): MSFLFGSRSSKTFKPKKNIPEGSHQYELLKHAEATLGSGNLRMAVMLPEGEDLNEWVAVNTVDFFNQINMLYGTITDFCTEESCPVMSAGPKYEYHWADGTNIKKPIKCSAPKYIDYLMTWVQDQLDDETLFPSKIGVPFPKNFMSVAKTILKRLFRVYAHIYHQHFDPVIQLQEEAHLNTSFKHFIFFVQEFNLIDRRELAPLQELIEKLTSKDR

SMILES	IC50 (LATS1)	EC50 [1]
CC(C)(O)CC(C)(C)Nc1nc(-c2ccncc2Cl)nc2cnccc12 [Example 125, 4-{[2-(3-chloropyridin-4-yl)pyrido[3,4-d]pyrimidin-4-yl]amino}-2,4-dimethylpentan-2-ol]	23 nM	8000 nM
CCCNc1nc(-c2c[nH]nc2C2CC2)nc2cnccc12 [Example 163, 2-(3-cyclopropyl-1H-pyrazol-4-yl)-N-propylpyrido[3,4-d]pyrimidin-4-amine]	51 nM	> 20000 nM
Cn1nccc1-c1nc(NC2(C(F)(F)F)CC2)c2ccncc2n1 [Example 189, 2-(1-methyl-1H-pyrazol-5-yl)-N-[1-(trifluoromethyl)cyclopropyl]pyrido[3,4-d]pyrimidin-4-amine]	83 nM	> 10000 nM
CC(C)(CCS(C)(=O)=O)Nc1nc(-c2ccncc2Cl)nc2cnccc12 [Example 129, 2-(3-chloropyridin-4-yl)-N-(4-methanesulfonyl-2-methylbutan-2-yl)pyrido[3,4-d]pyrimidin-4-amine]	187 nM	> 20000 nM
COC(=O)[C@H]1C[C@@H](Nc2nc(-c3ccncc3)nc3cnccc23)C1 [Example 54, methyl (1s,3s)-3-{[2-(pyridin-4-yl)pyrido[3,4-d]pyrimidin-4-yl]amino}cyclobutane-1-carboxylate]	78 nM	> 20000 nM
CC(C)(CN)Nc1nc(-c2cn[nH]c2)nc2cnccc12 [Example 197, N-(1-amino-2-methylpropan-2-yl)-2-(1H-pyrazol-4-yl)pyrido[3,4-d]pyrimidin-4-amine]	23 nM	
CCN(CC)c1cc(-c2ccncc2Cl)nc2cnccc12 [Example 286, 2-(3-chloropyridin-4-yl)-N,N-diethyl-1,7-naphthyridin-4-amine]	560 nM	> 20000 nM
Cc1cccc(Nc2nc(-c3ccncc3)nc3cnccc23)c1 [Example 93, N-(3-methylphenyl)-2-(pyridin-4-yl)pyrido[3,4-d]pyrimidin-4-amine]	809 nM	> 20000 nM
CC1(Nc2nc(-c3ccnc(C(F)(F)F)c3)nc3cnccc23)CC1 [Example 150, N-(1-methylcyclopropyl)-2-[2-(trifluoromethyl)pyridin-4-yl]pyrido[3,4-d]pyrimidin-4-amine]	4270 nM	
O=C(O)CCCNc1nc(-c2ccncc2)nc2cnccc12 [Example 97, 4-{[2-(pyridin-4-yl)pyrido[3,4-d]pyrimidin-4-yl]amino}butanoic acid]		> 20000 nM
CC1(Nc2nc(-c3ccnc(C#N)c3)nc3cnccc23)CC1 [Example 151, 4-{4-[(1-methylcyclopropyl)amino]pyrido[3,4-d]pyrimidin-2-yl}pyridine-2-carbonitrile]	> 10000 nM	
CC(Nc1nc(-c2ccncc2)nc2cnccc12)c1ccccc1 (stereo not drawn) [Example 98, N-(1-phenylethyl)-2-(pyridin-4-yl)pyrido[3,4-d]pyrimidin-4-amine]	1350 nM	
CC(Nc1nc(-c2ccnn2C)nc2cnccc12)c1ccncc1 (stereo not drawn) [Example 193, 2-(1-methyl-1H-pyrazol-5-yl)-N-[1-(pyridin-4-yl)ethyl]pyrido[3,4-d]pyrimidin-4-amine]	> 10000 nM	
OCC1(Nc2nc(-c3cn[nH]c3)nc3cnccc23)CCC1 [Example 191, (1-{[2-(1H-pyrazol-4-yl)pyrido[3,4-d]pyrimidin-4-yl]amino}cyclobutyl)methanol]	189 nM	
CN(c1nc(-c2ccnn2C)nc2cnccc12)C1(C)CC1 [Example 169, N-methyl-2-(1-methyl-1H-pyrazol-5-yl)-N-(1-methylcyclopropyl)pyrido[3,4-d]pyrimidin-4-amine]	98 nM	
CCn1cc(-c2nc(NCC(C)C)c3ccncc3n2)cn1 [Example 195, 2-(1-ethyl-1H-pyrazol-4-yl)-N-(2-methylpropyl)pyrido[3,4-d]pyrimidin-4-amine]	> 10000 nM	
COC(=O)CC1(Nc2nc(-c3ccncc3)nc3cnccc23)CC1 [Example 102, methyl 2-(1-{[2-(pyridin-4-yl)pyrido[3,4-d]pyrimidin-4-yl]amino}cyclopropyl)acetate]	126 nM	
